Reference: ChEMBL document CHEMBL4007421, “Discovery and Preclinical Characterization of 3-((4-(4-Chlorophenyl)-7-fluoroquinoline-3-yl)sulfonyl)benzonitrile, a Novel Non-acetylenic Metabotropic Glutamate Receptor 5 (mGluR5) Negative Allosteric Modulator for Psychiatric Indications” (J Med Chem, 2017)

Each compound was assayed on Liver (assay: Intrinsic clearance in rat liver microsomes at 2.5 uM assessed per gram of liver).
Format: ADME, microsome

Row | CLint | SMILES
1 | 17.5 mL/min/g | Cc1ccc(S(=O)(=O)c2cnc3ccccc3c2-c2ccc(Cl)cc2)cc1
2 | 18 mL/min/g | Cc1ccc(S(=O)(=O)c2cnc3ccccc3c2N2CCOCC2)cc1C

What follows are compounds tested on Liver (assay: Intrinsic clearance in human liver microsomes at 2.5 uM assessed per gram of liver).
Format: ADME, microsome

Row | SMILES | CLint
3 | COc1ccc(S(=O)(=O)c2cnc3c(F)cccc3c2-c2cccc(F)c2)cc1 | 3.03 mL/min/g
4 | O=S(=O)(c1cc(Cl)cc(Cl)c1)c1cnc2cc(F)ccc2c1-c1ccccc1F | 0.93 mL/min/g
5 | COc1ccc(-c2c(S(=O)(=O)c3ccc(F)cc3)cnc3c(F)cccc23)cc1 | 2.41 mL/min/g
6 | O=S(=O)(c1ccc(F)c(F)c1)c1cnc2c(F)cccc2c1-c1ccc(F)cc1 | 0.78 mL/min/g
7 | COc1ccc(-c2c(S(=O)(=O)c3cccc(F)c3)cnc3c(F)cccc23)cc1 | 2.48 mL/min/g
8 | COc1ccc(-c2c(S(=O)(=O)c3cc(F)cc(F)c3)cnc3c(F)cccc23)cc1 | 2.59 mL/min/g
9 | COc1cccc(-c2c(S(=O)(=O)c3cc(F)cc(F)c3)cnc3c(F)cccc23)c1 | 2.76 mL/min/g
10 | O=S(=O)(c1ccc(F)c(F)c1)c1cnc2c(F)cccc2c1-c1ccccc1F | 1.39 mL/min/g
11 | O=S(=O)(c1ccc(F)c(F)c1)c1cnc2c(F)cccc2c1-c1cccc(Cl)c1 | 1.13 mL/min/g
12 | O=S(=O)(c1cc(Cl)cc(Cl)c1)c1cnc2c(F)cccc2c1-c1ccc(Cl)cc1 | 0.78 mL/min/g
13 | COc1ccc(-c2c(S(=O)(=O)c3ccc(C)c(F)c3)cnc3c(F)cccc23)cc1 | 3.27 mL/min/g
14 | O=S(=O)(c1ccc(F)c(Cl)c1)c1cnc2c(F)cccc2c1-c1cccc(Cl)c1 | 0.18 mL/min/g
15 | COc1cccc(-c2c(S(=O)(=O)c3ccc(F)cc3)cnc3c(F)cccc23)c1 | 2.23 mL/min/g
16 | N#Cc1cccc(S(=O)(=O)c2cnc3c(F)cccc3c2-c2ccccc2F)c1 | 0.66 mL/min/g
17 | O=S(=O)(c1cc(F)cc(F)c1)c1cnc2c(F)cccc2c1-c1cccc(Cl)c1 | 0.64 mL/min/g
18 | O=S(=O)(c1cccc(F)c1)c1cnc2c(F)cccc2c1-c1cccc(Cl)c1 | 0.56 mL/min/g
19 | O=S(=O)(c1cc(F)cc(F)c1)c1cnc2c(F)cccc2c1-c1ccccc1F | 0.09 mL/min/g
20 | COc1ccc(S(=O)(=O)c2cnc3c(F)cccc3c2-c2ccc(Cl)cc2)cc1 | 1.05 mL/min/g
21 | O=S(=O)(c1cc(Cl)cc(Cl)c1)c1cnc2c(F)cccc2c1-c1cccc(F)c1 | 1.08 mL/min/g
22 | O=S(=O)(c1cc(Cl)cc(Cl)c1)c1cnc2c(F)cccc2c1-c1ccccc1F | 0.44 mL/min/g
23 | COc1cccc(-c2c(S(=O)(=O)c3cc(Cl)cc(Cl)c3)cnc3c(F)cccc23)c1 | 2.31 mL/min/g
24 | Cc1ccc(S(=O)(=O)c2cnc3ccccc3c2-c2ccc(Cl)cc2)cc1 | 2.12 mL/min/g

Row | SMILES | CLint
25 | N#Cc1cccc(S(=O)(=O)c2cnc3c(F)cccc3c2-c2ccc(Cl)cc2)c1 | 0.08 mL/min/g
26 | N#Cc1cccc(S(=O)(=O)c2cnc3c(F)cccc3c2-c2cccc(Cl)c2)c1 | 1.11 mL/min/g
27 | COc1ccc(-c2c(S(=O)(=O)c3cc(Cl)cc(Cl)c3)cnc3c(F)cccc23)cc1 | 2.11 mL/min/g
28 | COc1ccc(S(=O)(=O)c2cnc3c(F)cccc3c2-c2cccc(Cl)c2)cc1 | 2.75 mL/min/g
29 | COc1ccc(-c2c(S(=O)(=O)c3ccc(OC)cc3)cnc3c(F)cccc23)cc1 | 2.12 mL/min/g
30 | O=S(=O)(c1ccc(F)cc1)c1cnc2c(F)cccc2c1-c1cccc(Cl)c1 | 1.21 mL/min/g
31 | N#Cc1cccc(S(=O)(=O)c2cnc3c(F)cccc3c2-c2cccc(F)c2)c1 | 0.34 mL/min/g
32 | O=S(=O)(c1cccc(F)c1)c1cnc2c(F)cccc2c1-c1ccccc1F | 0.21 mL/min/g
33 | COc1ccc(-c2c(S(=O)(=O)c3ccc(F)c(F)c3)cnc3c(F)cccc23)cc1 | 2.12 mL/min/g
34 | O=S(=O)(c1cccc(F)c1)c1cnc2c(F)cccc2c1-c1ccc(Cl)cc1 | 0.62 mL/min/g
35 | O=S(=O)(c1cc(Cl)cc(Cl)c1)c1cnc2c(F)cccc2c1-c1cccc(Cl)c1 | 1.2 mL/min/g
36 | O=S(=O)(c1ccc(F)c(Cl)c1)c1cnc2c(F)cccc2c1-c1ccc(F)cc1 | 0.19 mL/min/g
37 | COc1ccc(S(=O)(=O)c2cnc3c(F)cccc3c2-c2cccc(OC)c2)cc1 | 2.87 mL/min/g
38 | Cc1ccc(S(=O)(=O)c2cnc3ccccc3c2N2CCOCC2)cc1C | 3.37 mL/min/g
39 | COc1ccc(S(=O)(=O)c2cnc3cc(F)ccc3c2-c2ccc(Cl)cc2)cc1 | 1.28 mL/min/g
40 | COc1ccc(-c2c(S(=O)(=O)c3ccc(OC)cc3)cnc3cc(F)ccc23)cc1 | 1.18 mL/min/g
41 | COc1cccc(-c2c(S(=O)(=O)c3cccc(F)c3)cnc3c(F)cccc23)c1 | 2.6 mL/min/g
42 | N#Cc1cccc(S(=O)(=O)c2cnc3c(F)cccc3c2-c2ccc(F)cc2)c1 | 0.19 mL/min/g
43 | COc1ccc(-c2c(S(=O)(=O)c3cc(Cl)cc(Cl)c3)cnc3cc(F)ccc23)cc1 | 1 mL/min/g
44 | O=S(=O)(c1cc(F)cc(F)c1)c1cnc2c(F)cccc2c1-c1ccc(Cl)cc1 | 0.73 mL/min/g
45 | O=S(=O)(c1ccc(F)c(Cl)c1)c1cnc2c(F)cccc2c1-c1ccccc1F | 1.39 mL/min/g
46 | O=S(=O)(c1ccc(F)c(Cl)c1)c1cnc2c(F)cccc2c1-c1ccc(Cl)cc1 | 0.01 mL/min/g

The remaining lines, values ahead:

Row | CLint | SMILES
47 | 1.34 mL/min/g | O=S(=O)(c1ccc(F)cc1)c1cnc2cc(F)ccc2c1-c1ccc(F)cc1
48 | 1.71 mL/min/g | COc1ccc(S(=O)(=O)c2cnc3cc(F)ccc3c2-c2ccc(F)cc2)cc1
49 | 0.11 mL/min/g | O=S(=O)(c1cccc(F)c1)c1cnc2cc(F)ccc2c1-c1ccc(F)cc1
50 | 1.18 mL/min/g | O=S(=O)(c1cc(F)cc(F)c1)c1cnc2c(F)cccc2c1-c1cccc(F)c1
51 | 0.98 mL/min/g | O=S(=O)(c1cccc(F)c1)c1cnc2cc(F)ccc2c1-c1ccc(Cl)cc1
52 | 1.23 mL/min/g | O=S(=O)(c1ccc(F)c(Cl)c1)c1cnc2c(F)cccc2c1-c1cccc(F)c1
53 | 0.03 mL/min/g | O=S(=O)(c1cc(F)cc(F)c1)c1cnc2cc(F)ccc2c1-c1ccc(Cl)cc1
54 | 9.25 mL/min/g | Cc1ccc(S(=O)(=O)c2cnc3cc(F)ccc3c2-c2ccc(F)cc2)cc1C
55 | 2.94 mL/min/g | COc1ccc(S(=O)(=O)c2cnc3cc(F)ccc3c2-c2cccc(F)c2)cc1
56 | 7.88 mL/min/g | Cc1ccc(S(=O)(=O)c2cnc3cc(F)ccc3c2-c2ccc(Cl)cc2)cc1C
57 | 3.92 mL/min/g | Cc1ccc(S(=O)(=O)c2cnc3c(F)cccc3c2-c2cccc(F)c2)cc1F
58 | 1.19 mL/min/g | COc1ccc(S(=O)(=O)c2cnc3cc(F)ccc3c2-c2cccc(Cl)c2)cc1Cl
59 | 1.51 mL/min/g | COc1cccc(-c2c(S(=O)(=O)c3cc(Cl)cc(Cl)c3)cnc3cc(F)ccc23)c1
60 | 8.78 mL/min/g | COc1cccc(-c2c(S(=O)(=O)c3ccc(C)c(C)c3)cnc3cc(F)ccc23)c1
61 | 0.24 mL/min/g | O=S(=O)(c1cccc(F)c1)c1cnc2cc(F)ccc2c1-c1cccc(F)c1
62 | 2.08 mL/min/g | COc1ccc(S(=O)(=O)c2cnc3cc(F)ccc3c2-c2cccc(F)c2)cc1Cl
63 | 0.79 mL/min/g | O=S(=O)(c1ccc(F)c(F)c1)c1cnc2cc(F)ccc2c1-c1ccccc1F
64 | 0.22 mL/min/g | O=S(=O)(c1cc(F)cc(F)c1)c1cnc2cc(F)ccc2c1-c1cccc(Cl)c1
65 | 4.01 mL/min/g | Cc1ccc(S(=O)(=O)c2cnc3cc(F)ccc3c2-c2cccc(Cl)c2)cc1C
66 | 0.41 mL/min/g | Cc1ccc(S(=O)(=O)c2cnc3cc(F)ccc3c2-c2cccc(F)c2)cc1F
67 | 3.18 mL/min/g | Cc1ccc(S(=O)(=O)c2cnc3c(F)cccc3c2-c2cccc(Cl)c2)cc1F
68 | 1.89 mL/min/g | COc1ccc(-c2c(S(=O)(=O)c3cccc(F)c3)cnc3cc(F)ccc23)cc1
69 | 0.66 mL/min/g | O=S(=O)(c1ccc(F)c(Cl)c1)c1cnc2cc(F)ccc2c1-c1cccc(Cl)c1
70 | 2.13 mL/min/g | Cc1ccc(S(=O)(=O)c2cnc3cc(F)ccc3c2-c2cccc(Cl)c2)cc1F
71 | 0.92 mL/min/g | COc1ccc(-c2c(S(=O)(=O)c3cccc(C#N)c3)cnc3cc(F)ccc23)cc1
72 | 2.2 mL/min/g | Cc1ccc(S(=O)(=O)c2cnc3c(F)cccc3c2-c2ccc(Cl)cc2)cc1F
73 | 0.93 mL/min/g | O=S(=O)(c1cc(Cl)cc(Cl)c1)c1cnc2cc(F)ccc2c1-c1cccc(Cl)c1

Row | CLint | SMILES
74 | 1.77 mL/min/g | COc1cccc(-c2c(S(=O)(=O)c3ccc(F)c(F)c3)cnc3cc(F)ccc23)c1
75 | 1.39 mL/min/g | N#Cc1cccc(S(=O)(=O)c2cnc3cc(F)ccc3c2-c2ccccc2F)c1
76 | 1.29 mL/min/g | COc1ccc(S(=O)(=O)c2cnc3cc(F)ccc3c2-c2ccc(F)cc2)cc1Cl
77 | 2.97 mL/min/g | COc1cccc(S(=O)(=O)c2cnc3cc(F)ccc3c2-c2cccc(Cl)c2)c1
78 | 1.77 mL/min/g | COc1ccc(-c2c(S(=O)(=O)c3ccc(F)cc3)cnc3cc(F)ccc23)cc1
79 | 4.02 mL/min/g | COc1cccc(-c2c(S(=O)(=O)c3ccc(C)c(F)c3)cnc3c(F)cccc23)c1
80 | 2.75 mL/min/g | Cc1ccc(S(=O)(=O)c2cnc3c(F)cccc3c2-c2ccc(F)cc2)cc1F
81 | 0.99 mL/min/g | N#Cc1cccc(S(=O)(=O)c2cnc3cc(F)ccc3c2-c2cccc(Cl)c2)c1
82 | 0.6 mL/min/g | O=S(=O)(c1ccc(F)c(F)c1)c1cnc2cc(F)ccc2c1-c1cccc(F)c1
83 | 4.13 mL/min/g | COc1ccc(-c2c(S(=O)(=O)c3ccc(C)c(C)c3)cnc3cc(F)ccc23)cc1
84 | 1.07 mL/min/g | O=S(=O)(c1ccc(F)c(Cl)c1)c1cnc2cc(F)ccc2c1-c1ccccc1F
85 | 1.1 mL/min/g | COc1ccc(-c2c(S(=O)(=O)c3ccc(F)c(F)c3)cnc3cc(F)ccc23)cc1
86 | 3.71 mL/min/g | Cc1ccc(S(=O)(=O)c2cnc3cc(F)ccc3c2-c2cccc(F)c2)cc1C
87 | 2.33 mL/min/g | Cc1ccc(S(=O)(=O)c2cnc3cc(F)ccc3c2-c2ccc(F)cc2)cc1F
88 | 1.71 mL/min/g | COc1cccc(-c2c(S(=O)(=O)c3ccc(OC)c(Cl)c3)cnc3cc(F)ccc23)c1
89 | 1.81 mL/min/g | COc1cccc(-c2c(S(=O)(=O)c3cc(F)cc(F)c3)cnc3cc(F)ccc23)c1
90 | 0.25 mL/min/g | O=S(=O)(c1ccc(F)c(Cl)c1)c1cnc2cc(F)ccc2c1-c1cccc(F)c1
91 | 0.78 mL/min/g | N#Cc1cccc(S(=O)(=O)c2cnc3cc(F)ccc3c2-c2cccc(F)c2)c1
92 | 3.36 mL/min/g | COc1cccc(S(=O)(=O)c2cnc3cc(F)ccc3c2-c2cccc(F)c2)c1
93 | 1.14 mL/min/g | O=S(=O)(c1cccc(F)c1)c1cnc2c(F)cccc2c1-c1cccc(F)c1
94 | 1.08 mL/min/g | COc1ccc(-c2c(S(=O)(=O)c3ccc(F)c(Cl)c3)cnc3cc(F)ccc23)cc1
95 | 1.28 mL/min/g | O=S(=O)(c1ccc(F)c(F)c1)c1cnc2c(F)cccc2c1-c1cccc(F)c1
96 | 0.95 mL/min/g | O=S(=O)(c1ccc(F)cc1)c1cnc2cc(F)ccc2c1-c1cccc(F)c1
97 | 1.51 mL/min/g | COc1ccc(-c2c(S(=O)(=O)c3cc(F)cc(F)c3)cnc3cc(F)ccc23)cc1
98 | 1.83 mL/min/g | COc1cccc(-c2c(S(=O)(=O)c3cccc(C#N)c3)cnc3cc(F)ccc23)c1
99 | 0.38 mL/min/g | O=S(=O)(c1ccc(F)c(F)c1)c1cnc2cc(F)ccc2c1-c1cccc(Cl)c1
100 | 1.56 mL/min/g | O=S(=O)(c1ccc(F)cc1)c1cnc2c(F)cccc2c1-c1cccc(F)c1
